Where “and” joins values, the source holds several entries; their conditions need not be identical. Equal entries are not always repeated. Entries after “also recorded” stand apart in the source; their conditions may differ. Where two headings read alike, the source gives them in different places.
Tests used:
in vitro = conditions: human
HEK293 cells [1] = experiment: RNA integrity analysis of HEK293 cells treated with inhibitors and menadione (TapeStation 28S/18S rRNA); format: cell-based, human; conditions: 30 μM compound 24 h
Rlig1-AMP = target: T1, Rlig1-AMP (Homo sapiens, UniProt Q8N999); experiment: Radioactive RNA ligation assay (hit validation, 10 µM test and IC50 determination); format: biochemical; conditions: for Product formation [%] of RNA ligation, Rlig1: three replicates
T1 construct: made in house; host or cells: E. coli BL21 (DE3), pET15b-Rlig1

HEK293 cells [2] = experiment: Light-microscopy of inhibitor- and menadione-treated HEK293 cells; format: cell-based, human; conditions: 30 µM compound 24 h, then menadione 5 h
HEK293 cells [3] = experiment: Cell viability assay of HEK293 cells treated with inhibitors (CellTiter-Glo)
[4] = target: T2, human DNA ligase 1 (hLig1) (Homo sapiens, UniProt P18858); experiment: DNA ligation assay with various hLig1 concentration at constant inhibitor concentration; format: biochemical; conditions: 10 μM compound, hLig1 titrated (500 nM to 31.3 nM), 30 min 37 °C
T2 construct: made in house; host or cells: E. coli Rosetta BL21 (DE3), pET28a-hLig1

[5] = target: T2, human DNA ligase 1 (hLig1); experiment: DNA ligation assay with hLig1 and 47 (compound titration); format: biochemical; conditions: for Product formation [%] of DNA ligation, hlig1: three replicates
[6] = log(inhibitor) vs. response, variable slope (four parameters)
[7] = Figure 5B, Sigmoidal, 4PL, fit Interrupted

T1 sequence (Q8N999 whole entry): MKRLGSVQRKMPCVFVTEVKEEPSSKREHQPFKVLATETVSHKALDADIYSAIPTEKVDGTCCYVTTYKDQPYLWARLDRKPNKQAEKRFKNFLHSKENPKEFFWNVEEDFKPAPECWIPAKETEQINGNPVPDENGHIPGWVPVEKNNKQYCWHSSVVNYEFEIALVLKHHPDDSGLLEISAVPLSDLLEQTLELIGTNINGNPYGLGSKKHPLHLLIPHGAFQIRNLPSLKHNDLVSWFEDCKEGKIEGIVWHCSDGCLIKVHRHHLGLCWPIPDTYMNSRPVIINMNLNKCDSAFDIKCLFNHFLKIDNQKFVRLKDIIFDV
T2 sequence (P18858 whole entry): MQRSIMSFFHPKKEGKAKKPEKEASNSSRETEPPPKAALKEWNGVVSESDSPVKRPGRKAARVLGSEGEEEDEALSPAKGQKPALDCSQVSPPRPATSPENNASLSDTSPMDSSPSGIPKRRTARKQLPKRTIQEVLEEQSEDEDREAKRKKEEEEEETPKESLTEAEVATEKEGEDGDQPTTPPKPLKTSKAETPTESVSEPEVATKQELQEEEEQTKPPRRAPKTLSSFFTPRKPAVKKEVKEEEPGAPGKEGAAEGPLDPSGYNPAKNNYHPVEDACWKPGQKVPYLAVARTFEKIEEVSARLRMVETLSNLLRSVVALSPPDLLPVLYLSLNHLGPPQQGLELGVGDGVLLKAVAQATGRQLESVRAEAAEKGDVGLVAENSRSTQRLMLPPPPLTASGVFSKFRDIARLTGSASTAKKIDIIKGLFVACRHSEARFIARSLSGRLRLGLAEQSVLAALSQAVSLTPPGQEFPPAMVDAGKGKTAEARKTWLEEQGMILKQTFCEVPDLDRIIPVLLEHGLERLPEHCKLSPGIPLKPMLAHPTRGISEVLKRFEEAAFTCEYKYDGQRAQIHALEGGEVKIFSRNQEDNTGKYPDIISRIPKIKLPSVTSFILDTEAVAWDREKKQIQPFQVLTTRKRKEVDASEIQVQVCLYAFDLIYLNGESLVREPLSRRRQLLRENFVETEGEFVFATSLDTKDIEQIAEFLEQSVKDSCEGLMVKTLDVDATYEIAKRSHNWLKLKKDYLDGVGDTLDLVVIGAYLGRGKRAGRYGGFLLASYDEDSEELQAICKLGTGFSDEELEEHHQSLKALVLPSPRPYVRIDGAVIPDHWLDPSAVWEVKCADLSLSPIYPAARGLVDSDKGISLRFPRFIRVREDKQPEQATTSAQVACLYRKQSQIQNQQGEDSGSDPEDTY

Compound `Nc1nccc(Nc2ccc(NC(=O)c3ccc(Nc4ncnc5ccccc45)cc3)cc2)n1` [Compound 47] has a viability at 24 h, 3.75 µM (in vitro) of 97.2%, a viability at 24 h, 7.5 µM (in vitro) of 97.9% and a viability at 24 h, 15 µM (in vitro) of 93%. The viability at 24 h, 30 µM (in vitro) was 86%, the 28S/18S ratio (HEK293 cells [1]; Menadione 0 μM) was 3.0 and the 28S/18S ratio (HEK293 cells [1]; Menadione 40 μM 5 h) was 2.1. For the same compound, the 28S/18S ratio (HEK293 cells [1]; Menadione 60 μM 5 h) was 0.9, the “inhibition of Rlig1-AMP ligation (urea-PAGE)” value (Rlig1-AMP; 10 μM compound, 500 nM Rlig1-AMP, 20 min 37 °C) was “Ligation was inhibited; also recorded: inhibited Rlig1-AMP” and the “Bottom (best-fit value), Rlig1” value (Rlig1-AMP; Figure 5B, Sigmoidal, 4PL) was 1.324. The “HillSlope (best-fit value), Rlig1” value (Rlig1-AMP; Figure 5B, Sigmoidal, 4PL) was -6.786, the “Span (best-fit value), Rlig1” value (Rlig1-AMP; Figure 5B, Sigmoidal, 4PL) was 68.62 and the “Top (best-fit value), Rlig1” value (Rlig1-AMP; Figure 5B, Sigmoidal, 4PL, X is log(concentration)) was 69.95. The “LogIC50 (best-fit value), Rlig1” value (Rlig1-AMP; Figure 5B, Sigmoidal, 4PL, log of µM) was 0.6576, the IC50 (Rlig1-AMP; Figure 5B, Sigmoidal, 4PL, read-out: IC50 (best-fit value), Rlig1) was 4.55 µM and the “HillSlope (best-fit value)” value (Rlig1-AMP; four-parameter fit) was 6.82. For the same compound, the “Span (best-fit value)” value (Rlig1-AMP; four-parameter fit) was 92.85, the IC50 (Rlig1-AMP; four-parameter fit, n = 3, read-out: IC50 (best-fit value)) was 4.54 µM and the “Product formation [%] of RNA ligation, Rlig1” value (“Product formation [%] … Rlig1” below) (Rlig1-AMP; log (47 [µM]) 0.273001) was 3.068% and 1.075% and 8.355%. The “Product formation [%] … Rlig1” value (Rlig1-AMP; log (47 [µM]) 0.574031) was 27.5278% and 13.8043% and 34.7122%, the “Product formation [%] … Rlig1” value (Rlig1-AMP; log (47 [µM]) 0.875061) was 98.3243% and 92.1834% and 95.246% and the “Product formation [%] … Rlig1” value (Rlig1-AMP; log (47 [µM]) 1.17609) was 100% and 96.1318% and 97.0084%. For the same compound, the “Product formation [%] … Rlig1” value (Rlig1-AMP; log (47 [µM]) 1.47712) was 100% and 98.2475% and 98.511%, the “Product formation [%] … Rlig1” value (Rlig1-AMP; log (47 [µM]) -0.0280287) was 6.829% and 0.6969% and 9.287% and the “Product formation [%] … Rlig1” value (Rlig1-AMP; log (47 [µM]) -0.329059) was 4.933% and 0% and 8.486%. The “Product formation [%] … Rlig1” value (Rlig1-AMP; log (47 [µM]) -0.630089) was 7.315% and 6.312% and 9.428%, the inhibition at 30 µM (Rlig1-AMP; log Compound [µM] 1.47712, replicates I-III, read-out: percentage inhibition (dose response curve for IC50)) was 100% and the inhibition at 0.234375 µM (Rlig1-AMP; log Compound [µM] -0.630089, replicates I-III, read-out: percentage inhibition (dose response curve for IC50)) was 7.32%. The “LogIC50 (best-fit value)” value (Rlig1-AMP; log of µM, four-parameter fit) was 0.6569, the “Bottom (best-fit value)” value (Rlig1-AMP; [6]) was 5.434 and the “Top (best-fit value)” value (Rlig1-AMP; [6]) was 98.28. The IC50 (Rlig1-AMP; radioactive ligation assay, 500 nM Rlig1-AMP, 20 min 37 °C, n = 3, read-out: IC50) was 4.54 µM, the cell morphology (HEK293 cells [2]) was “poor adherence and cell shrinkage” and the “cytotoxicity (in words)” value (HEK293 cells [3]; HEK293, 24 h, up to 30 μM) was “no detectable cytotoxicity”. For the same compound, the “IC50 (Figure 3D: EC50 values for plot; log(inhibitor) vs. response -- Variable slope (four parameters))” value (HEK293 cells [3]; HEK293 cell viability, fit per plate (3 plates, 4 technical replicates each), highest tested concentration 30 µM) was 163.557 µM and 35.63 µM and 278.968 µM, the “LogIC50 (log(inhibitor) vs. response -- Variable slope (four parameters))” value (HEK293 cells [3]; HEK293 cell viability, fit per plate (3 plates, 4 technical replicates each), log of [µM]) was 2.214 and 1.552 and 2.446 and the EC50 (HEK293 cells [3]; Homo sapiens, HEK293, 24 h) was > 30 µM. The “effect on hLig1 activity (in words)” value [4] was “least impact on hLig1 activity”, the “effect on DNA ligase activity (in words)” value ([5]; 1:2 dilution series starting from 30 μM compound, 500 nM hLig1, 20 min 37 °C) was “No effect” and the “Bottom (best-fit value), hlig1” value [5, 7] was -4.954. For the same compound, the “HillSlope (best-fit value), hlig1” value [5, 7] was -3.033, the “Span (best-fit value), hlig1” value [5, 7] was 97.9 and the “Top (best-fit value), hlig1” value [5, 7] was 92.94. For the same compound, the “LogIC50 (best-fit value), hlig1” value ([5]; Figure 5B, Sigmoidal, 4PL, fit Interrupted, log of µM) was 1.72, the “Product formation [%] of DNA ligation, hlig1” value (shortened to “Product formation [%] … hlig1”) ([5]; log (47 [µM]) 0.273001) was -3.458% and -4.463% and -2.953% and the “Product formation [%] … hlig1” value ([5]; log (47 [µM]) 0.574031) was -2.567% and -4.108% and -2.802%. The “Product formation [%] … hlig1” value ([5]; log (47 [µM]) 0.875061) was -2.276% and -3.138% and -3.06%, the “Product formation [%] … hlig1” value ([5]; log (47 [µM]) 1.17609) was 0.5458% and -2.902% and -1.203% and the “Product formation [%] … hlig1” value ([5]; log (47 [µM]) 1.47712) was 11.4249% and 9.911% and 18.8699%. The “Product formation [%] … hlig1” value ([5]; log (47 [µM]) -0.0280287) was -3.67% and -4.363% and -3.165%, the “Product formation [%] … hlig1” value ([5]; log (47 [µM]) -0.329059) was -3.453% and -3.785% and -3.456% and the “Product formation [%] … hlig1” value ([5]; log (47 [µM]) -0.630089) was -3.095% and -4.479% and -2.914%.
